Assay results taken from ChEMBL document CHEMBL1133177, “Application of similarity matrices and genetic neural networks in quantitative structure-activity relationships of 2- or 4-(4-Methylpiperazino)pyrimidines: 5-HT(2A) receptor antagonists” (J Med Chem, 2000).

Assays:
[1] = molecular target: T1, 5-hydroxytryptamine receptor 2A (Rattus norvegicus, UniProt P14842); test: Affinity for 5-hydroxytryptamine 2A receptor in rat brain cortex by ability to displace [3H]ketanserin; assay type: tissue-based
[2] = molecular target: T1, 5-hydroxytryptamine receptor 2A; test: (§1) Affinity at 5-hydroxytryptamine 2A receptor of the rat brain cortex was assessed on the basis of their ability to displace [3H]ketanserin
[3] = molecular target: T1, 5-hydroxytryptamine receptor 2A; test: as §1; remark: listed apart in the source
[4] = molecular target: T1, 5-hydroxytryptamine receptor 2A; test: Affinity 5-hydroxytryptamine 2A receptor of the rat brain cortex was assessed on the basis of their ability to displace [3H]ketanserin

T1 sequence (P14842 whole entry): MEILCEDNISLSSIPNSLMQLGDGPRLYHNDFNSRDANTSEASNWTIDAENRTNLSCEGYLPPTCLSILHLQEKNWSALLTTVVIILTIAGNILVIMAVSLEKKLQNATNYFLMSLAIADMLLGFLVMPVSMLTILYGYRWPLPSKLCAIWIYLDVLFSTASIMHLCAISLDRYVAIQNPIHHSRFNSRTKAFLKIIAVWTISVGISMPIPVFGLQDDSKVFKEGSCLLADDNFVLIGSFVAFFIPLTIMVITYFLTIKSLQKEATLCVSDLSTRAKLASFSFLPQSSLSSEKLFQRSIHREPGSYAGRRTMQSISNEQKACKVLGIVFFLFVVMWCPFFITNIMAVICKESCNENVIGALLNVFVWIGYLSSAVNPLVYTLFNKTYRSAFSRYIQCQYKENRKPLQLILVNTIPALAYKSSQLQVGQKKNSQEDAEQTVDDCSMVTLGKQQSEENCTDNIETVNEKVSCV

CN1CCN(c2nccc(-c3ccsc3)n2)CC1
Ki [1]: 191 nM

CN1CCN(c2nc(-c3ccco3)cc(-c3cc4ccccc4s3)n2)CC1
Ki [1]: 37.2 nM

CN1CCN(c2nc(-c3ccco3)cc(-c3cc4ccccc4o3)n2)CC1
Ki [1]: 110 nM

Cc1c(-c2cccs2)nc(N2CCN(C)CC2)nc1-c1cccs1
Ki [1]: 17 nM

Cc1ccc(-c2cc(N3CCN(C)CC3)nc(Cl)n2)cc1
Ki [2]: 4220 nM
Ki [3]: 4270 nM

CN1CCN(c2nc(-c3ccoc3)cc(-c3cc4ccccc4s3)n2)CC1
Ki [1]: 55 nM

CN1CCN(c2nc(-c3ccsc3)cc(-c3cccs3)n2)CC1
Ki [1]: 20.9 nM

Cc1ccc(-c2cc(Cl)nc(N3CCN(C)CC3)n2)cc1
Ki [1]: 575 nM
Ki [4]: 582 nM

CN1CCN(c2nc(Cl)cc(-c3cccs3)n2)CC1
Ki [2]: 353 nM
Ki [3]: 347 nM

CN1CCN(c2nc(-c3cc4ccccc4o3)cc(-c3cccn3C)n2)CC1
Ki [1]: 135 nM

CN1CCN(c2cc(-c3ccco3)nc(Cl)n2)CC1
Ki [2]: 5960 nM
Ki [3]: 6030 nM

CN1CCN(c2nc(Cl)cc(-c3ccoc3)n2)CC1
Ki [1]: 40.7 nM
Ki [4]: 41 nM

CN1CCN(c2cc(-n3ccnc3)ncn2)CC1
Ki [2]: > 10000 nM
Ki [3]: > 10000 nM

CN1CCN(c2nccc(-n3ccnc3)n2)CC1
Ki [1]: 380 nM
Ki [4]: 384 nM

CN1CCN(c2nc(-c3ccco3)cc(-c3cccs3)n2)CC1
Ki [1]: 37.2 nM

CN1CCN(c2cc(-c3cccs3)nc(Cl)n2)CC1
Ki [2]: 2720 nM
Ki [3]: 2690 nM
